Experimental data as given in patent US20260072027A1, “Peptides And Method” (Queen Mary University of London, priority 2022, published 2026).
Blank lines part the entries; values can stand above or below the molecule they belong to. Where no end group is shown, it is not given here.

Assays:
[1] = system: autoantibodies to oxPTM-INS; assay: Competitive displacement ELISA, plate coated with oxidised insulin; type: binding, human; conditions: sera pre-incubated with peptide competitor
Method: A competitive displacement assay was performed to map the exact epitope, namely the exact amino acid sequence binding specificities and to test the binding to native peptides versus oxidised insulin peptides. The binding to the peptide was done by direct ELISA on the native or modified peptides or by competition ELISA. Initially native synthetic peptide was oxidised by exposing to 0.05 mM CuCl2; 90 mM H2O2; 10 mM NaOCl. Native and modified peptides were fractionated by AKTA to evaluated changes in molecular profile. AKTA fractions were then tested by ELISA for reactivity (FIGS. 2 and 3). We next perform competition ELISA with the native peptides and peptides exposed to 0.05 mM CuCl2; 90 mM H2O2; 10 mM NaOCl. Serum samples were pre-incubated with either native insulin peptides or oxidised insulin peptides. Finally, based on the amino acid sequence of the identified peptides we predicted the amino acids that would be oxidised by ^●OH and HOCl and designed synthetic peptides that contain the oxidised amino acids in the synthesis. Synthetic peptides were produced by standard commercially available methods, specifically by Peptide Protein Research Ltd. Briefly, peptide synthesis was performed by automated solid phase peptide synthesis (SPPS), which was followed by purification. Each individual amino acid was added to the growing chain according to the sequence. Where specified, dihydroxyphenylalanine was added to replace Tyr or cysteate were added to replace Cys. Similarly, these peptides were tested by competition ELISA. The table below describe the different competition ELISA performed:
Serum samples from children with type 1 diabetes were pre-incubated with the synthetic peptides before they were added to the native insulin or oxidised that were previously coated on the ELISA plate. If the antibodies in the serum sample bind to the peptide they will no longer bind to the insulin or oxidised insulin on the plate-competition ELISA. 1:200 dilutions of serum samples from T1D serum samples were pre-incubated for 2 hr at room temperature with the various peptides as shown in the table above. After incubation, serum/peptide mix was added to the ELISA plate previously coated overnight with either native insulin or oxidised insulin for an additional 2 hr incubation. Plates were then washed in a plate washer three times with PBS 0.05% tween. After washing, 100 ul of anti-human IgG diluted 1:1000 in 1% milk-PBS 0.05% tween were added for additional 1 hour and 30 min incubation. After washing, ELISA was developed by adding 100 ul of TMB (10 mg/ml in DMSO) in 10 ml of 0.1 M sodium acetate plus 2 ul of H2O2. Reaction was stopped by adding 0.5 M H2SO4 (usually 20 min for insulin ELISA).
To assess the binding specificity of serum samples to identified peptides, a competitive ELISA was performed. The ELISA was carried out following the method described above, except that the serum samples were pre-incubated for 2 h with and without 10 μg/ml peptides as competitors, before adding the serum samples to the insulin coated ELISA plate.

CD8+ T-cells (PBMCs) = assay: In vitro peptide stimulation and T-cell proliferation assay, CD8+; type: cell-based, human
Source text: (§1) In vitro peptide stimulation and T-cell proliferation assay. Peripheral blood mononuclear cells (PBMCs) were freshly isolated from type 1 diabetes and healthy individuals using Ficoll-Hypaque density gradient centrifugation. PBMCs were labelled with the fluorescent dye CellTrace Violet (Invitrogen, Thermo Fisher Scientific) and cultured (2×10^5 cells/well) in round-bottom 96-well plates (Falcon, Becton Dickinson) with RPMI-1640 medium (Gibco, Thermo Fisher Scientific) supplemented with 5% autologous plasma in the presence or not of insulin peptides (20 μg/ml); PPD (10 μg/ml) and anti-CD3 (0.1 μg/ml; clone OKT3) were used as positive control. Two scrambled peptides: […] (SEQ ID NO: 17), […] (SEQ ID NO: 18), and the Exendin 9-39 fragment were used as negative controls. After 7 days, PBMCs were stained with PE-Cy7 anti-CD8 (clone RPA-T8, BD Pharmingen) and FITC anti-CD3 (clone UCHT1, BD Pharmingen). Samples were analysed by using a FACSCanto II (BD Bioscience) to evaluate T-cell proliferation measured as CellTrace Violet dilution. Cytofluorimetric analyses were performed using FlowJo Software (FlowJo, LLC). The results were given as stimulation index (SI), calculated as percentage of stimulated T-cell subset proliferation/percentage of unstimulated T-cell subset proliferation. Assay for detection of peptide specific T cells subsets was done as previously described (detailed in ESM methods, Assay for detection of peptide specific T cells)
(§2) T-cell stimulation with oxPTM-INSPs. To evaluate the immune cell response against the oxPTM-INSPs, we performed CD4+ and CD8+ T cells proliferation experiments using freshly isolated PBMCs (Study cohort 2, Table 1). Response was calculated as stimulatory index (SI) over unstimulated T-cells.

CD4+ T-cells (PBMCs) = assay: In vitro peptide stimulation and T-cell proliferation assay, CD4+; type: cell-based, human
Source text: as §1, §2

serum IgG autoantibodies = assay: ELISA for autoantibody detection: serum antibody binding to native and oxPTM insulin peptides; set-up: species or system human; conditions: for % binders, Healthy controls / Mean ± SEM (absorbance, OD), Healthy controls / % binders, Type 1 diabetes: Study cohort 1; for % binders, Type 1 diabetes: cut-off = mean of healthy controls to Nt-INSP plus 3 SEM; for Mean ± SEM (absorbance, OD), Type 1 diabetes: Study cohort 1 sera
Method: ELISA for autoantibody detection. The ELISA analysis of Nt-INS and oxPTM-INS autoantibodies was performed as previously described [18](detailed in ESM methods, ELISA assay for antibody detection).
Statistical analyses. Statistical analyses were performed using Prism Software 9.0 (GraphPad, San Diego, CA, USA). Cut-off points of positivity (binders) in the antibody ELISA for each peptide were defined by the mean of optical absorbance (O.D) of healthy controls to the corresponding Nt-INSP plus three times the standard error of the mean (SEM). Specificity and sensitivity were evaluated by receiver operating characteristic (ROC) curve analysis. Area under the curve (AUC) is reported as absolute value and was tested for equality according to DeLong et al. Differences in antibody levels and T-cell stimulation indices (SI) between groups were tested by the One way ANOVA or Student's t-tests as appropriate. Correlation analyses were tested by Pearson or Spearman's test, as appropriate. Categorical analyses were performed by Chi-square or McNemar's tests, as appropriate. For each set of experiments, p values were adjusted for multiple comparison using the Holm-Sidak's test. Hierarchical cluster and Principal Component Analysis (PCA) was done using Clustvis software (https://biit.cs.ut.ee/clustvis/) and Prism Software 9.0, respectively.
Antibody reactivity of type 1 diabetes serum against the candidate oxPTM-INSP. Identified peptide candidates were synthesised and exposed to either HOCl or ^●OH to generate oxPTM-INSPs that were first assessed by TOF-MS/ES+TIC to confirm modification (FIG. 17). Antibody response against native INSPs (Nt-INSPs) and oxPTM-INSPs was evaluated by ELISA using sera from Study cohort 1.
ESM Methods ELISA assay for antibody detection. The ELISA analysis of native (Nt-INS) and modified insulin (oxPTM-INS) was performed as previously described. Briefly, the ELISA plate was coated overnight at 4° C. with 100 μl per well of modified or native insulin in 0.05 M carbonate/bicarbonate buffer pH 9.6 at 10 μg/ml. The next day, the plates were washed 3 times with 0.1% Tween PBS, followed by blocking for 2 hours at room temperature with 200 μl per well of 5% BSA in 0.1% Tween PBS. After washing, 100 μl of 1:200-diluted serum samples in 5% BSA-0.1% Tween PBS were added for additional 2 hours incubation. ELISA plates were then washed 3 times with 0.1% Tween PBS followed by probing with anti-human IgG horse radish peroxidase conjugated (HRP, Sigma) at 1:1,000 dilution in 5% BSA-0.1% Tween PBS for another 1.5 hours incubation. The ELISA plates were washed, and 100 μg/ml TMB substrate in 0.1M sodium acetate pH 6.0 plus 2 μl/10 ml of H2O2, were added. Subsequently, the reaction was stopped with 20% v/v sulphuric acid. The optical density (O.D.) was measured at 450 nm using a GENios plate reader and Magellan software (TECAN, Dorset, UK).

[2] = biological target: Serum IgG autoantibodies of subjects with type 1 diabetes (human); assay: competitive ELISA, T1D serum pre-incubated with peptide, plate coated with oxidised insulin (Example 3)
[3] = biological target: Serum IgG autoantibodies of subjects with type 1 diabetes (human); assay: competitive ELISA, T1D serum pre-incubated with peptide, plate coated with oxidised insulin (FIG. 2A)

inhibition of type 1 diabetes serum binding to oxPTM-INS (in words) [1]: not | % binders, Healthy controls (serum IgG autoantibodies; in house modifications): 19% | Mean ± SEM (absorbance, OD), Healthy controls (serum IgG autoantibodies; in house modifications): 0.333 ± 0.030 | % binders, Type 1 diabetes (serum IgG autoantibodies; in house modifications): 42% | % binders, Healthy controls (serum IgG autoantibodies; in silico modifications): 9% | Mean ± SEM (absorbance, OD), Healthy controls (serum IgG autoantibodies; in silico modifications): 0.143 ± 0.007 | % binders, Type 1 diabetes (serum IgG autoantibodies; in silico modifications): 49% | Mean ± SEM (absorbance, OD), Type 1 diabetes (serum IgG autoantibodies; in house modifications): 0.405 ± 0.029 | Mean ± SEM (absorbance, OD), Type 1 diabetes (serum IgG autoantibodies; in silico modifications): 0.242 ± 0.019
Molecule: SLYQLENYCN (Ac-SLYQLENYCN) [insulin A:12-21 native peptide]
CD8+ T-cell response, subjects with SI > 1 (%) (CD8+ T-cells (PBMCs); Controls (N = 11)): (36.4%) | CD8+ T-cell response, subjects with SI > 3 (%) (CD8+ T-cells (PBMCs); Controls (N = 11)): (36.4%) | CD8+ T-cell response, subjects with SI > 5 (%) (CD8+ T-cells (PBMCs); Controls (N = 11)): (36.4%) | CD8+ T-cell response, subjects with SI > 10 (%) (CD8+ T-cells (PBMCs); Controls (N = 11)): (18.2%) | CD8+ T-cell response, subjects with SI > 1 (%) (CD8+ T-cells (PBMCs); Type 1 diabetes (N = 18)): (50.0%) | CD8+ T-cell response, subjects with SI > 3 (%) (CD8+ T-cells (PBMCs); Type 1 diabetes (N = 18)): (22.2%) | CD8+ T-cell response, subjects with SI > 5 (%) (CD8+ T-cells (PBMCs); Type 1 diabetes (N = 18)): (11.1%) | CD8+ T-cell response, subjects with SI > 10 (%) (CD8+ T-cells (PBMCs); Type 1 diabetes (N = 18)): (5.6%) | CD4+ T-cell response, subjects with SI > 1 (%) (CD4+ T-cells (PBMCs); Controls (N = 11)): (54.5%) | CD4+ T-cell response, subjects with SI > 3 (%) (CD4+ T-cells (PBMCs); Controls (N = 11)): (18.2%) | CD4+ T-cell response, subjects with SI > 5 (%) (CD4+ T-cells (PBMCs); Controls (N = 11)): (9.1%) | CD4+ T-cell response, subjects with SI > 10 (%) (CD4+ T-cells (PBMCs); Controls (N = 11)): (0.0%) | CD4+ T-cell response, subjects with SI > 1 (%) (CD4+ T-cells (PBMCs); Type 1 diabetes (N = 18)): (72.2%) | CD4+ T-cell response, subjects with SI > 3 (%) (CD4+ T-cells (PBMCs); Type 1 diabetes (N = 18)): (27.8%) | CD4+ T-cell response, subjects with SI > 5 (%) (CD4+ T-cells (PBMCs); Type 1 diabetes (N = 18)): (21.1%) | CD4+ T-cell response, subjects with SI > 10 (%) (CD4+ T-cells (PBMCs); Type 1 diabetes (N = 18)): (16.7%)

% reduction of serum binding to oxidised whole insulin [2]: 40 to 80% | % reduction of serum binding to oxidised whole insulin [3]: 35 to 80%
B1: oxPTM-INSP-3, peptide 3 oxidised in house (oxidant not specified at the place) (peptide)
peptide: SLYQLENYCN
modifications: not fully specified (N-terminus); also: oxidised in house (CuCl2, H2O2, NaOCl), modified residues not defined
